Laboratory results published in patent US20250313563A1, “GLYCOGEN SYNTHASE KINASE 3 INHIBITORS AND USES THEREOF” (The Broad Institute, Inc., priority 2022, published 2025).
Like-named read-outs stand apart in the source and are kept apart here.

Tests used:
[1] = target: GSK3α (GST-full length GSK3α) (Homo sapiens (Human), UniProt P49840); experiment: GSK3α TR-FRET kinase assay; format: biochemical
Method in brief: (§1)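 In this time-resolved FRET format, kinase reactions contained 200 nM biotinylated, S645-phosphorylated glycogen synthase 631-650 peptide and either isoform-specific ATP (2 μM GSK3b, 4 μM GSK3α) or 1 mM ATP. They were quenched with EDTA after 100 min at ambient temperature. Inhibition curves gave IC50 values.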

[2] = target: GSK3b (GST-full length GSK3b) (Homo sapiens (Human), UniProt P49841); experiment: GSK3b TR-FRET kinase assay; format: biochemical
GSK3b (GST-full length GSK3b), sequence (P49841 whole entry): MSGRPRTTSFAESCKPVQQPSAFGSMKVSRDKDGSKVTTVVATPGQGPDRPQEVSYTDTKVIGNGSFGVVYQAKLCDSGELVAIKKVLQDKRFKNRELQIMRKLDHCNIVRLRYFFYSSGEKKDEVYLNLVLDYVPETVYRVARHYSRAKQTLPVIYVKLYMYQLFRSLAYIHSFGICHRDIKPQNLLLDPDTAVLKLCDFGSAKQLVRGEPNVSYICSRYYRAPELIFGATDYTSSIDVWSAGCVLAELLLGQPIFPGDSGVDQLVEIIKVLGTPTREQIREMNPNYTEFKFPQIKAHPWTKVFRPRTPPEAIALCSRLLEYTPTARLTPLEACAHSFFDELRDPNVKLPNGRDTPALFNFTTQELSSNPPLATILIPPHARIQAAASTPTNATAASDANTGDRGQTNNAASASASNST
Method in brief: as §1

[3] = 1 nM GSK3α, 4 μM ATP, 30 minute preincubation, Table 16, read-out: GSK3-A TR-FRET BIOCHEMICAL (TR-FRET), IC50
[4] = 1 nM GSK3b, 2 μM ATP, 30 minute preincubation, Table 16, read-out: GSK3-B TR-FRET BIOCHEMICAL (TR-FRET), IC50
[5] = read-out: GSK3-A (TR-FRET 1 mM ATP), GMean, IC50, 1 mM ATP, geometric mean
[6] = read-out: GSK3-B (TR-FRET 1 mM ATP), GMean, IC50, 1 mM ATP, geometric mean
[7] = 1 nM GSK3α, 4 μM ATP, 30 minute preincubation, Table 16, read-out: GSK3-A TR-FRET BIOCHEMICAL (TR-FRET)
[8] = 1 nM GSK3b, 2 μM ATP, 30 minute preincubation, Table 16, read-out: GSK3-B TR-FRET BIOCHEMICAL (TR-FRET)
[9] = 1 nM GSK3α, 4 μM ATP, 30 minute preincubation, read-out: GSK3-A TR-FRET BIOCHEMICAL (TR-FRET), IC50
[10] = 1 nM GSK3b, 2 μM ATP, 30 minute preincubation, read-out: GSK3-B TR-FRET BIOCHEMICAL (TR-FRET), IC50

GSK3α (GST-full length GSK3α), sequence (P49840 whole entry, canonical isoform): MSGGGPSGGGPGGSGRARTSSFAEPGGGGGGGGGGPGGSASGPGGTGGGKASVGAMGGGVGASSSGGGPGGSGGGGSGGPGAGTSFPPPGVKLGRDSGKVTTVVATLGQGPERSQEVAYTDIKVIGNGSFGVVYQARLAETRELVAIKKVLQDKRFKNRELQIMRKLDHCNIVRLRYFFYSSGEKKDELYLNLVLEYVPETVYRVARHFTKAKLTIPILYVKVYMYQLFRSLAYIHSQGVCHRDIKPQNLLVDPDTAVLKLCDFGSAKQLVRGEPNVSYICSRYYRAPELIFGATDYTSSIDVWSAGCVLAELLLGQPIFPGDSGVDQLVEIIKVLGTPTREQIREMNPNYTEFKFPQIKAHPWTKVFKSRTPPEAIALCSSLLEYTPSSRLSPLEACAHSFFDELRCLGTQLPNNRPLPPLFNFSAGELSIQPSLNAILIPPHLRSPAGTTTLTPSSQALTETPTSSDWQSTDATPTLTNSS

CCC1(c2cccc(-c3ccnc(C(F)(F)F)c3)c2)C2=C(CC(C)(C)CC2=O)Nc2n[nH]cc21 (stereo not shown) [Compound 913348]
IC50 [1, 3]: ≤ 100 nM | IC50 [2, 4]: 100 to 1000 nM

CCC1(c2cccc(-c3ccncc3F)c2)C2=C(CC(C)(C)CC2=O)Nc2n[nH]cc21 (stereo not shown) [Compound 913349]
IC50 [1, 3]: ≤ 100 nM | IC50 [2, 4]: ≤ 100 nM

CCC1(c2cccc(-c3ccnc(C(F)(F)F)c3)c2)C2=C(CC(C)(C)CC2=O)Nc2n[nH]cc21 (stereo not shown) [Compound 913350]
IC50 [1, 3]: 100 to 1000 nM | IC50 [1, 5]: ≤ 100 nM | IC50 [2, 4]: ≤ 100 nM | IC50 [2, 6]: 100 to 1000 nM

CCC1(c2cccc(-c3ccncc3C)c2)C2=C(CC(C)(C)CC2=O)Nc2n[nH]cc21 (stereo not shown) [Compound 913351]
IC50 [1, 3]: ≤ 100 nM | IC50 [2, 4]: ≤ 100 nM

CCC1(c2cccc(-c3ccnc(O)c3)c2)C2=C(CC(C)(C)CC2=O)Nc2n[nH]cc21 (stereo not shown) [Compound 913352]
IC50 [1, 3]: ≤ 100 nM | IC50 [2, 4]: ≤ 100 nM

CCC1(c2cccc(C(F)(F)F)c2)C2=C(CCCNC2=O)Nc2n[nH]cc21 (stereo not shown) [Compound 913355]
IC50 [1, 7]: > 5000 nM | IC50 [2, 8]: > 5000 nM

CC1(C)CC(=O)C2=C(C1)Nc1n[nH]cc1C21CCC(S(C)(=O)=O)CC1 (stereo not shown) [Compound 913356]
IC50 [1, 7]: ≤ 100 nM | IC50 [2, 8]: ≤ 100 nM

CCC1(c2cccc(-c3ccnc(C)c3)c2)C2=C(CC(C)NC2=O)Nc2n[nH]cc21 (stereo not shown) [Compound 913357]
IC50 [1, 9]: 100 to 1000 nM | IC50 [2, 10]: 1000 to 5000 nM

CCC1(c2cccc(Br)c2)C2=C(CC(C)(C)NC2=O)Nc2n[nH]cc21 (stereo not shown) [Compound 913439]
IC50 [1, 9]: ≤ 100 nM | IC50 [2, 10]: 100 to 1000 nM

O=C1CC2(CSC2)CC2=C1C1(CCCC1)c1c[nH]nc1N2 [Compound 913441]
IC50 [1, 7]: 100 to 1000 nM | IC50 [2, 8]: 100 to 1000 nM

CC1(C)CC(=O)C2=C(C1)Nc1n[nH]cc1[C@@]21CO[C@@H](C2CC2)C1 [Compound 913442]
IC50 [1, 7]: 100 to 1000 nM | IC50 [2, 8]: 100 to 1000 nM

CC[C@@]1(c2cccc(C(F)(F)F)c2)C2=C(Nc3n[nH]cc31)C(C)(C)NC2=O [Compound 913451]
IC50 [1, 7]: ≤ 100 nM | IC50 [2, 8]: 100 to 1000 nM

CC[C@@]1(c2cccc(C(F)(F)F)c2)C2=C(CC3(CCC3)NC2=O)Nc2n[nH]cc21 [Compound 914308]
IC50 [1, 9]: ≤ 100 nM | IC50 [1, 5]: 100 to 1000 nM | IC50 [2, 10]: ≤ 100 nM | IC50 [2, 6]: 1000 to 5000 nM

CCC1(c2cccc(-c3ccnc(C)c3)c2)C2=C(CC(C)(C)NC2=O)Nc2n[nH]cc21 (stereo not shown) [Compound 914930]
IC50 [1, 9]: ≤ 100 nM | IC50 [2, 10]: 1000 to 5000 nM

CCC1(c2cccc(-c3ccnn3C)c2)C2=C(CC(C)(C)NC2=O)Nc2n[nH]cc21 (stereo not shown) [Compound 914971]
IC50 [1, 9]: ≤ 100 nM | IC50 [2, 10]: 100 to 1000 nM

CC[C@@]1(c2cccc(N(C)c3cnccn3)c2)C2=C(CC(C)(C)CC2=O)Nc2n[nH]cc21 [Compound 915316]
IC50 [1, 3]: ≤ 100 nM | IC50 [2, 4]: ≤ 100 nM

CC[C@]1(c2cccc(N(C)c3cnccn3)c2)C2=C(CC(C)(C)CC2=O)Nc2n[nH]cc21 [Compound 915340]
IC50 [1, 3]: 100 to 1000 nM | IC50 [2, 4]: 1000 to 5000 nM

CC[C@@]1(c2cccc(N(C)c3cncnc3)c2)C2=C(CC(C)(C)CC2=O)Nc2n[nH]cc21 [Compound 915400]
IC50 [1, 3]: ≤ 100 nM | IC50 [2, 4]: ≤ 100 nM

CC[C@]1(c2cccc(N(C)c3cncnc3)c2)C2=C(CC(C)(C)NC2=O)Nc2n[nH]cc21 [Compound 915401]
IC50 [1, 3]: 100 to 1000 nM | IC50 [2, 4]: 1000 to 5000 nM

CCC1(c2cccc(N3CCCc4ncccc43)c2)C2=C(CC(C)(C)CC2=O)Nc2n[nH]cc21 (stereo not shown) [Compound 917076]
IC50 [1, 3]: ≤ 100 nM | IC50 [2, 4]: ≤ 100 nM

CCC1(c2cccc(N3CCCc4ncccc43)c2)C2=C(CC(C)(C)CC2=O)Nc2n[nH]cc21 (stereo not shown) [Compound 917079]
IC50 [1, 3]: 100 to 1000 nM | IC50 [2, 4]: 1000 to 5000 nM

CC1(C)CC(=O)C2=C(C1)Nc1n[nH]cc1C21CC(c2ccccc2)C1 (stereo not shown) [Compound 917081]
IC50 [1, 7]: ≤ 100 nM | IC50 [2, 8]: ≤ 100 nM

CC1(C)CC(=O)C2=C(C1)Nc1n[nH]cc1C21CC(c2ccccc2)C1 (stereo not shown) [Compound 917082]
IC50 [1, 7]: ≤ 100 nM | IC50 [2, 8]: ≤ 100 nM

CCC1(c2cccc(N(c3cccnc3)C(C)C)c2)C2=C(CC(C)(C)CC2=O)Nc2n[nH]cc21 (stereo not shown) [Compound 917086]
IC50 [1, 5]: 100 to 1000 nM | IC50 [2, 6]: 1000 to 5000 nM

CC[C@]1(c2cccc(N(c3cccnc3)C(C)C)c2)C2=C(CC(C)(C)CC2=O)Nc2n[nH]cc21 [Compound 917087]
IC50 [1, 3]: 100 to 1000 nM | IC50 [2, 4]: 1000 to 5000 nM

CCN(c1cccnc1)c1cccc(C2(CC)C3=C(CC(C)(C)CC3=O)Nc3n[nH]cc32)c1 (stereo not shown) [Compound 917088]
IC50 [1, 3]: ≤ 100 nM | IC50 [1, 5]: 100 to 1000 nM | IC50 [2, 4]: ≤ 100 nM | IC50 [2, 6]: 1000 to 5000 nM
